Reference: the supplement of paper PMC10290057
Counter-ions that a name gives are not always drawn.

Key:
[1] = system: HCT116; assay: efficacy (fitted maximal change in viability relative to DMSO control); higher = less cytotoxic (negative = loss of viability); conditions: 48 h
[2] = system: HCT116; assay: AC50 cell viability (CellTiter-Glo); higher = less potent; conditions: 48 h
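For AC50 cell viability (CellTiter-Glo) in this document: HCT116 colorectal carcinoma cells screened at five concentrations per compound, luminescent viability scaled between DMSO wells and empty wells on each plate, curves fitted per compound.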
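For efficacy (fitted maximal change in viability relative to DMSO control) in this document: Luminescence-based viability readout, five doses per compound, normalized against on-plate DMSO and empty-well controls, followed by dose-response curve fitting for every drug.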

CN1C(=O)c2sccc2N(C)c2nc(Nc3ccc([S+](N)(=O)[O-])cc3)ncc21 [XMU-MP-1]
efficacy [1]: -99.2% | AC50 cell viability [2]: 3.32 µM

Cc1cc(C(=O)N2CCN(c3cccc(Cl)c3)CC2)n(-c2ccccc2)n1 [XRP-44X]
efficacy [1]: -62.8% | AC50 cell viability [2]: 2.95 µM

C=C1C(=O)O[C@H]2C[C@H](C)C(/C=C/C(C)=O)=CC[C@H]12 [Xanthatin]
efficacy [1]: -76% | AC50 cell viability [2]: 2.63 µM

COc1ccc(C(=O)CC2(O)C(=O)Nc3c(Cl)ccc(Cl)c32)cc1 (configuration not stated) [YK-4-279]
efficacy [1]: -57.1% | AC50 cell viability [2]: 1.18 µM

COc1ccc(N2C(=O)N(c3c(C)cccc3Cl)Cc3cnc(Nc4ccc(C5CCN(C)CC5)cc4OC)nc32)nc1 [YKL-05-099]
efficacy [1]: -99.4% | AC50 cell viability [2]: 10.5 µM

CN(C)c1ccc2cc(C(=O)N[C@@H](CCCNC(=N)CCl)C(=O)NCc3ccccc3)ccc2c1 [YW3-56]
efficacy [1]: -56.2% | AC50 cell viability [2]: 20.9 µM

FC(F)c1nc2ccccc2n1-c1nc(N2CCOCC2)nc(N2CCOCC2)n1 [ZSTK-474]
efficacy [1]: -58.2% | AC50 cell viability [2]: 0.742 µM

CC1(CN2CCC(n3c(=O)[nH]c4ccccc43)CC2)OCc2ccccc2-n2cccc21 (configuration not stated) [Zaldaride maleate]
efficacy [1]: -74.1% | AC50 cell viability [2]: 20.9 µM

Cl.Cl.Cl.O[C@@H](COc1cccc2ncccc12)CN1CCN([C@@H]2c3ccccc3[C@@H]3[C@H](c4ccccc42)C3(F)F)CC1 [Zosuquidar trihydrochloride]
efficacy [1]: -97% | AC50 cell viability [2]: 16.6 µM

CC1(C)CC\C2=C(/O1)C3=C(C=CC=C3)C(=O)C2=O [beta-Lapachone]
efficacy [1]: -103% | AC50 cell viability [2]: 14.8 µM

CC1CCN(c2cc(N3CCN(C)CC3)ccc2NC(=O)c2cc(C#N)c[nH]2)CC1 [c-FMS Inhibitor]
efficacy [1]: -34% | AC50 cell viability [2]: 7.42 µM
